Results reported in patent publication US10479786B2, “Protein kinase inhibitors” (Princeton Drug Discovery Inc, priority 2016, dated 2019).
Each block holds one molecule with its values, some of them ahead of it.

Assays:
[1] = target: T1, HER4 (Homo sapiens, UniProt Q15303); assay: Off-chip Mobility Shift Assay, kinase inhibition; assay type: biochemical; conditions: at 10 nM; recombinant HER4
T1 construct: purchased Carna Biosciences, Inc

[2] = target: T2, MST1 (Homo sapiens, UniProt Q13043); assay: Off-chip Mobility Shift Assay, kinase inhibition; assay type: biochemical; conditions: at 10 nM; recombinant MST1
T2 construct: purchased Carna Biosciences, Inc

[3] = target: T3, EGFR(L861Q) (Homo sapiens, UniProt P00533, L861Q); assay: Off-chip Mobility Shift Assay, kinase inhibition; assay type: biochemical; conditions: at 10 nM; recombinant EGFR(L861Q)
T3 construct: purchased Carna Biosciences, Inc

[4] = target: T4, PDGFRα(D842V) (Homo sapiens, UniProt P16234, D842V); assay: Off-chip Mobility Shift Assay, kinase inhibition; assay type: biochemical; conditions: at 10 nM; recombinant PDGFRα(D842V)
T4 construct: purchased Carna Biosciences, Inc

[5] = target: T5, RAF1 (Homo sapiens, UniProt P04049, Y340D/Y341D); assay: Off-chip Mobility Shift Assay, kinase inhibition; assay type: biochemical; conditions: recombinant RAF1; for inhibition at 0.01 µM: at 10 nM
T5 construct: purchased Carna Biosciences, Inc

[6] = target: T6, FYN(isoform b) (Homo sapiens, UniProt P06241); assay: Off-chip Mobility Shift Assay, kinase inhibition; assay type: biochemical; conditions: recombinant FYN(isoform b)
T6 construct: purchased Carna Biosciences, Inc

[7] = target: T7, KIT (Homo sapiens, UniProt P10721); assay: Off-chip Mobility Shift Assay, kinase inhibition; assay type: biochemical; conditions: recombinant KIT; for inhibition at 0.01 µM: at 10 nM
T7 construct: purchased Carna Biosciences, Inc

[8] = target: T8, DDR1 (Homo sapiens, UniProt Q08345); assay: Off-chip Mobility Shift Assay, kinase inhibition; assay type: biochemical; conditions: at 10 nM; recombinant DDR1
T8 construct: purchased Carna Biosciences, Inc

[9] = target: T9, BRAF(V600E) (Homo sapiens, UniProt P15056, V600E); assay: Off-chip Mobility Shift Assay, kinase inhibition; assay type: biochemical; conditions: at 10 nM; recombinant BRAF(V600E)
T9 construct: purchased Carna Biosciences, Inc

[10] = target: T10, p38β (Homo sapiens, UniProt Q15759); assay: Off-chip Mobility Shift Assay, kinase inhibition; assay type: biochemical; conditions: recombinant p38β; for inhibition at 0.01 µM: at 10 nM
T10 construct: purchased Carna Biosciences, Inc

[11] = target: T11, AurA (Homo sapiens, UniProt O14965); assay: Off-chip Mobility Shift Assay, kinase inhibition; assay type: biochemical; conditions: at 10 nM; recombinant AurA
T11 construct: purchased Carna Biosciences, Inc

[12] = target: T12, KIT(V560G) (Homo sapiens, UniProt P10721, V560G); assay: Off-chip Mobility Shift Assay, kinase inhibition; assay type: biochemical; conditions: recombinant KIT(V560G); for inhibition at 0.01 µM: at 10 nM
T12 construct: purchased Carna Biosciences, Inc

[13] = target: T13, FGFR3 (Homo sapiens, UniProt P22607); assay: Off-chip Mobility Shift Assay, kinase inhibition; assay type: biochemical; conditions: at 10 nM; recombinant FGFR3
T13 construct: purchased Carna Biosciences, Inc

[14] = target: T14, RET (Homo sapiens, UniProt P07949); assay: Off-chip Mobility Shift Assay, kinase inhibition; assay type: biochemical; conditions: at 10 nM; recombinant RET
T14 construct: purchased Carna Biosciences, Inc

[15] = target: T15, EGFR (Homo sapiens, UniProt P00533); assay: Off-chip Mobility Shift Assay, kinase inhibition; assay type: biochemical; conditions: recombinant EGFR; for inhibition at 0.01 µM: at 10 nM
T15 construct: purchased Carna Biosciences, Inc

[16] = target: T16, FGFR1 (Homo sapiens, UniProt P11362); assay: Off-chip Mobility Shift Assay, kinase inhibition; assay type: biochemical; conditions: at 10 nM; recombinant FGFR1
T16 construct: purchased Carna Biosciences, Inc

[17] = target: T17, BRAF (Homo sapiens, UniProt P15056); assay: Off-chip Mobility Shift Assay, kinase inhibition; assay type: biochemical; conditions: recombinant BRAF; for inhibition at 0.01 µM: at 10 nM
T17 construct: purchased Carna Biosciences, Inc

[18] = target: T18, YES(T348I) (Homo sapiens, UniProt P07947, T348I); assay: Off-chip Mobility Shift Assay, kinase inhibition; assay type: biochemical; conditions: recombinant YES(T348I)
T18 construct: purchased Carna Biosciences, Inc

[19] = target: T19, ROCK1 (Homo sapiens, UniProt Q13464); assay: Off-chip Mobility Shift Assay, kinase inhibition; assay type: biochemical; conditions: at 10 nM; recombinant ROCK1
T19 construct: purchased Carna Biosciences, Inc

[20] = target: T20, PKD1 (Homo sapiens, UniProt Q15139); assay: Off-chip Mobility Shift Assay, kinase inhibition; assay type: biochemical; conditions: at 10 nM; recombinant PKD1
T20 construct: purchased Carna Biosciences, Inc

[21] = target: T21, p38α (Homo sapiens, UniProt Q16539); assay: Off-chip Mobility Shift Assay, kinase inhibition; assay type: biochemical; conditions: recombinant p38α; for inhibition at 0.01 µM: at 10 nM
T21 construct: purchased Carna Biosciences, Inc

[22] = target: T22, RET(G691 S) (Homo sapiens, UniProt P07949, G691S); assay: Off-chip Mobility Shift Assay, kinase inhibition; assay type: biochemical; conditions: at 10 nM; recombinant RET(G691 S)
T22 construct: purchased Carna Biosciences, Inc

[23] = target: T23, FGFR2 (Homo sapiens, UniProt P21802); assay: Off-chip Mobility Shift Assay, kinase inhibition; assay type: biochemical; conditions: at 10 nM; recombinant FGFR2
T23 construct: purchased Carna Biosciences, Inc

[24] = target: T24, RET(S891A) (Homo sapiens, UniProt P07949, S891A); assay: Off-chip Mobility Shift Assay, kinase inhibition; assay type: biochemical; conditions: at 10 nM; recombinant RET(S891A)
T24 construct: purchased Carna Biosciences, Inc

[25] = target: T25, HER2 (Homo sapiens, UniProt P04626); assay: Off-chip Mobility Shift Assay, kinase inhibition; assay type: biochemical; conditions: recombinant HER2; for inhibition at 0.01 µM: at 10 nM
T25 construct: purchased Carna Biosciences, Inc

[26] = Lung tissue and plasma concentration ratios in mice; assay type: in vivo, CD-1 mouse; conditions: single oral dose 5 mg/kg, 2-in-1 with dasatinib, all time points tested
Procedure: CD-1 mouse (approximate weight 30 g, N=3) were dosed by oral gavage at 10 mL/kg. Blood samples were collected into tubes containing EDTA as the anticoagulant at 1, 2, 4, 10 h post-dosing for Compound X, and predose, 1, 2, 3, 8, 10 and 24 h post-dosing for Compound XI. The plasma samples were prepared by centrifugation. Lung samples were also collected at each of the above time points. The lung samples were homogenated in 4× distilled water (v/w). The plasma samples and the homogenated lung tissue samples were mixed with 3× volumes of acetonitrile containing 100 nM reserpine as the internal standard, and centrifuged at 4000 RPM for 15 min. The supernatants were injected for LC/MS analysis which were carried out on a AB Sciex 4000 Q Trap LC/MS/MS system coupled with Shimadzu Prominence UFLCXR 20 series (including a CBM-20A controller, two LC-20ADXR solvent delivery units, SIL-20AC HT autosampler, CTO-20A column oven, and a SPD-20A UV detector). The samples were separated on a Phenomenex Columbus column (C18, 4 μm, 50×2 mm) eluted with two solvent systems: 2 mM ammonium acetate in water containing 0.1% formic acid (A) and methanol (B) at a linear gradient starting at 25%. Electrospray ionization in positive mode was used to acquire LC/MS/MS data.

T21 sequence (Q16539 whole entry): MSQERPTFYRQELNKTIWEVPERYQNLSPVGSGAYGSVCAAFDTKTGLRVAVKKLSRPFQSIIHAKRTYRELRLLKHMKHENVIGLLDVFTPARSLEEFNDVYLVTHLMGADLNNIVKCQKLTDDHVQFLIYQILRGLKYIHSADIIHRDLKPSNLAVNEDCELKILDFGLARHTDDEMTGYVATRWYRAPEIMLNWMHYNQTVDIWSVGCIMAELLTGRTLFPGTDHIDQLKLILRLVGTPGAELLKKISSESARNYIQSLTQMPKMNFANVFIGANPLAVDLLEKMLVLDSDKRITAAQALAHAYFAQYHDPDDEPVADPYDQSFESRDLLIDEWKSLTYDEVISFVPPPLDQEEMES
T7 sequence (P10721 26-976): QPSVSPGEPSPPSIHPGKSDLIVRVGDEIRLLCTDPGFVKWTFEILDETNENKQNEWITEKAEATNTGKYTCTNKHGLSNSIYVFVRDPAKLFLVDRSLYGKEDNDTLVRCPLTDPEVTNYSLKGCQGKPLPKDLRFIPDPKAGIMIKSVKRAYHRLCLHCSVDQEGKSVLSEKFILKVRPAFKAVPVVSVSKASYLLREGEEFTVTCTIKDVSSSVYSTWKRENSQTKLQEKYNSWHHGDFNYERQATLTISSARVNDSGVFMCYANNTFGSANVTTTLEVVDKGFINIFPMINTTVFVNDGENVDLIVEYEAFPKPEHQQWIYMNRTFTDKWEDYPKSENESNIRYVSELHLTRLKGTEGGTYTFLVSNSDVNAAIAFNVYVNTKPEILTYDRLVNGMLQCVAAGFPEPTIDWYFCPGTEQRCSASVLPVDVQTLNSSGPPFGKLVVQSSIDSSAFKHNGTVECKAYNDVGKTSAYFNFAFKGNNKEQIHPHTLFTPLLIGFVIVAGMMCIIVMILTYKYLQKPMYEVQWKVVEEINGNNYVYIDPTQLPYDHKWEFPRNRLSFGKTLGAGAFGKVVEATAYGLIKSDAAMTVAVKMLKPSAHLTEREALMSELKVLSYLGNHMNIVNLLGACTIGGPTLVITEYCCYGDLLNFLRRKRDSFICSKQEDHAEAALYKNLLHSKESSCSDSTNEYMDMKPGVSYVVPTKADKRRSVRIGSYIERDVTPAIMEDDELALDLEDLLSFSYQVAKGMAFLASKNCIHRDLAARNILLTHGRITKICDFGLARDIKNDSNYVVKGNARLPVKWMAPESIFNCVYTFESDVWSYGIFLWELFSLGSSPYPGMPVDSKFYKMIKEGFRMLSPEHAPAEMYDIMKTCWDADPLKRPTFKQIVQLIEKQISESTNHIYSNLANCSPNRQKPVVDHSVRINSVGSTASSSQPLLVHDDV
T17 sequence (P15056 whole entry): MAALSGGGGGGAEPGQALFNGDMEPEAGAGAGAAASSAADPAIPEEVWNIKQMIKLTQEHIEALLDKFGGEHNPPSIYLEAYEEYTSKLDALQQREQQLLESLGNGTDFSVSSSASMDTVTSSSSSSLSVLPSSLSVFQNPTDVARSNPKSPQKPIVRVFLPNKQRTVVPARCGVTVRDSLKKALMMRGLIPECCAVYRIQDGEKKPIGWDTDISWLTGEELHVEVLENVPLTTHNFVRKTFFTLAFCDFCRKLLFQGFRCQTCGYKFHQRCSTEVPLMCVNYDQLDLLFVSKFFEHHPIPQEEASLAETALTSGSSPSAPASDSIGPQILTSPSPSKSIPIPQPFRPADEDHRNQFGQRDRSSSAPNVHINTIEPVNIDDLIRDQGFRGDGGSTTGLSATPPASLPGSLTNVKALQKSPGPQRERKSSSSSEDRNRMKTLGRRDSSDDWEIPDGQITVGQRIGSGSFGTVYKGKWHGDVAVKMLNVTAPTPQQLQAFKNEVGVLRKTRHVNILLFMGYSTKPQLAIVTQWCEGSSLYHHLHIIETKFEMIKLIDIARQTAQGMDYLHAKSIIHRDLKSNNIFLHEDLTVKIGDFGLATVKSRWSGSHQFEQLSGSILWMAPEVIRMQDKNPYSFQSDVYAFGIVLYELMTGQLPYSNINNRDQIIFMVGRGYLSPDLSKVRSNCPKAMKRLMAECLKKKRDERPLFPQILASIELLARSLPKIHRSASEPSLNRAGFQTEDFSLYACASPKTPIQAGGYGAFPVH
T5 sequence (P04049 306-648 Y340D/Y341D limits assumed): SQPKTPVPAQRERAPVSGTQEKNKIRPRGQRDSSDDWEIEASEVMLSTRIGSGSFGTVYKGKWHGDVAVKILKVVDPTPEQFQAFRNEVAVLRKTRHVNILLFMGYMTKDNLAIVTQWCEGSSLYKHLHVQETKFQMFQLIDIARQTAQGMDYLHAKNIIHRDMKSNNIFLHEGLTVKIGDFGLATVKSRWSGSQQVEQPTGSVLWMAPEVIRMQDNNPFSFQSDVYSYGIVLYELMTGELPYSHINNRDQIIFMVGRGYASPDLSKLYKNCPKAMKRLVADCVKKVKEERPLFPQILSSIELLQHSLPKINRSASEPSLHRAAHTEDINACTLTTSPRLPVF
T12 sequence (P10721 26-976 V560G): as the sequence (P10721 26-976) above, with V535G counted along it
T10 sequence (Q15759 whole entry): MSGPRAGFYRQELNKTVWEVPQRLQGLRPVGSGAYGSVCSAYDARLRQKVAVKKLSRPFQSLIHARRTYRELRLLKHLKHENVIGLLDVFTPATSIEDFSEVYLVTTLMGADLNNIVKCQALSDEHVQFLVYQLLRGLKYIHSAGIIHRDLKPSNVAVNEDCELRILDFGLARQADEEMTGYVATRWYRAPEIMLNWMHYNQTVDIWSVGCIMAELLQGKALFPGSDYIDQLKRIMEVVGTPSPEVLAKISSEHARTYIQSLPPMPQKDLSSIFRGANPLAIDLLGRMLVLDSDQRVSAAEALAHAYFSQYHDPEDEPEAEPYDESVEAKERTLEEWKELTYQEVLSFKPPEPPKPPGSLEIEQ
T25 sequence (P04626 23-1255): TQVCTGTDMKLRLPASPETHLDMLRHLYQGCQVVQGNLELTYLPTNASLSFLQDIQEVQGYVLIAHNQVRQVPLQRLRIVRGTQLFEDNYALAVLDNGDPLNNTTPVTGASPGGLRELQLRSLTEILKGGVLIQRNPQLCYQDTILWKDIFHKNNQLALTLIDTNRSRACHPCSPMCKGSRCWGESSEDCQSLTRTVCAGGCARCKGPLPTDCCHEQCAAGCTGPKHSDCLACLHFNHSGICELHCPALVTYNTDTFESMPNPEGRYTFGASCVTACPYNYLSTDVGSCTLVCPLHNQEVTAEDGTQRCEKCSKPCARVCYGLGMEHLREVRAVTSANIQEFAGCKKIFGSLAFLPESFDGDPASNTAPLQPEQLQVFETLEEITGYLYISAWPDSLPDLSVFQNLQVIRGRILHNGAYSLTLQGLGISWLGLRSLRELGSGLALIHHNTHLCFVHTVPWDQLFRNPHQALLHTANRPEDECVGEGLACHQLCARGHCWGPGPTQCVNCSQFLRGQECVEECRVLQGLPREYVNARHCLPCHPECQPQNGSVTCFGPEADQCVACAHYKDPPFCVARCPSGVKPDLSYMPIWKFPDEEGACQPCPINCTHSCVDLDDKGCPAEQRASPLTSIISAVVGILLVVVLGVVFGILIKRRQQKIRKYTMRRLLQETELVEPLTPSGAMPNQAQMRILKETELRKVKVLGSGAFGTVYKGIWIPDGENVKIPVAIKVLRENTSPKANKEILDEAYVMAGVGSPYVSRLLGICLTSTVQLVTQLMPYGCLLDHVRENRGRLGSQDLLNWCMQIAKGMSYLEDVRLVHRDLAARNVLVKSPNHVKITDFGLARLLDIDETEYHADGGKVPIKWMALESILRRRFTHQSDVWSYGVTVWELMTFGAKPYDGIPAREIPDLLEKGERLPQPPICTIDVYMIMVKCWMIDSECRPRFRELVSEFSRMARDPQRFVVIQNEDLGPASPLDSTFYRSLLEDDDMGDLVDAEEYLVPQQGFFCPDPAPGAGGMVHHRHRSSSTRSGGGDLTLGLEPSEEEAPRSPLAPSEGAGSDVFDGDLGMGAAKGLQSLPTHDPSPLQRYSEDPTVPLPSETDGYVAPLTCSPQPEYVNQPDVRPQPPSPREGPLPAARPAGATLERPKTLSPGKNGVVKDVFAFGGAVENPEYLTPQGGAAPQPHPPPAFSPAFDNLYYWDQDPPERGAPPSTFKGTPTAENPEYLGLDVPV
T18 sequence (P07947 whole entry T348I): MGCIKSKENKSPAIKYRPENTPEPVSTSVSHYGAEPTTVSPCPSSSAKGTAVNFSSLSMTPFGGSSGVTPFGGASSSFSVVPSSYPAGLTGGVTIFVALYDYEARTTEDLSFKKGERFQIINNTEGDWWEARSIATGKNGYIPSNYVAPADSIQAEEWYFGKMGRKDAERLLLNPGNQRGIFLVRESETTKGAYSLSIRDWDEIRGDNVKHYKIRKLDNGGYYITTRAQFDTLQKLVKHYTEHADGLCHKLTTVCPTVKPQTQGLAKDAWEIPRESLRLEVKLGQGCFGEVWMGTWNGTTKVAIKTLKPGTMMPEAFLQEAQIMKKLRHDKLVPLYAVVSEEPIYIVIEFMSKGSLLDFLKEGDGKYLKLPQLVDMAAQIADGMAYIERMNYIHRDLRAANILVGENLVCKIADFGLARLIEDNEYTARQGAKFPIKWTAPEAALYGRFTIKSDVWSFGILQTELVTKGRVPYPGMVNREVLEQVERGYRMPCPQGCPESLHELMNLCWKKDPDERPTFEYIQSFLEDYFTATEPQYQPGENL
T9 sequence (P15056 whole entry V600E): as the sequence (P15056 whole entry) above, with V600E counted along it

inhibition at 0.01 µM [1]: < 50%
inhibition at 0.01 µM [2]: < 50%
inhibition at 0.01 µM [3]: < 50%
inhibition at 0.01 µM [4]: < 50%
inhibition at 0.01 µM [5]: < 50%
inhibition at 0.01 µM ([6]; at 10 nM): > 50%
inhibition at 0.01 µM [7]: < 50%
inhibition at 0.01 µM [8]: < 50%
inhibition at 0.01 µM [9]: < 50%
inhibition at 0.01 µM [10]: < 50%
inhibition at 0.01 µM [11]: < 50%
inhibition at 0.01 µM [12]: < 50%
inhibition at 0.01 µM [13]: < 50%
inhibition at 0.01 µM [14]: < 50%
inhibition at 0.01 µM [15]: < 50%
inhibition at 0.01 µM [16]: < 50%
inhibition at 0.01 µM [17]: < 50%
inhibition at 0.01 µM ([18]; at 10 nM): < 50%
inhibition at 0.01 µM [19]: < 50%
inhibition at 0.01 µM [20]: < 50%
inhibition at 0.01 µM [21]: < 50%
inhibition at 0.01 µM [22]: < 50%
inhibition at 0.01 µM [23]: < 50%
inhibition at 0.01 µM [24]: < 50%
inhibition at 0.01 µM [25]: < 50%
SMILES: [2H]c1cc(C)c(NC(=O)c2cnc(Nc3cc(N4CCCCC4)nc(C)n3)s2)c(Cl)c1 [Compound I, N-(2-chloro-4-deuterio-6-methyl-phenyl)-2-[[2-methyl-6-(1-piperidyl)pyrimidin-4-yl]amino]thiazole-5-carboxamide]

inhibition at 0.001 µM ([5]; at 1 nM): < 50%
inhibition at 0.01 µM [5]: < 50%
inhibition at 0.1 µM ([5]; at 100 nM): < 50%
inhibition at 0.001 µM ([6]; at 1 nM): > 50%
inhibition at 0.001 µM ([7]; at 1 nM): < 50%
inhibition at 0.01 µM [7]: > 50%
inhibition at 0.1 µM ([7]; at 100 nM): > 50%
inhibition at 0.001 µM ([10]; at 1 nM): < 50%
inhibition at 0.01 µM [10]: < 50%
inhibition at 0.1 µM ([10]; at 100 nM): < 50%
inhibition at 0.001 µM ([12]; at 1 nM): < 50%
inhibition at 0.01 µM [12]: > 50%
inhibition at 0.1 µM ([12]; at 100 nM): > 50%
inhibition at 0.001 µM ([15]; at 1 nM): < 50%
inhibition at 0.01 µM [15]: < 50%
inhibition at 0.1 µM ([15]; at 100 nM): > 50%
inhibition at 0.001 µM ([17]; at 1 nM): < 50%
inhibition at 0.01 µM [17]: < 50%
inhibition at 0.1 µM ([17]; at 100 nM): < 50%
inhibition at 0.001 µM ([18]; at 1 nM): < 50%
inhibition at 0.001 µM ([21]; at 1 nM): < 50%
inhibition at 0.01 µM [21]: < 50%
inhibition at 0.1 µM ([21]; at 100 nM): < 50%
inhibition at 0.001 µM ([25]; at 1 nM): < 50%
inhibition at 0.01 µM [25]: < 50%
inhibition at 0.1 µM ([25]; at 100 nM): < 50%
SMILES: [2H]c1cc(C)c(NC(=O)c2cnc(Nc3cc(N4CCC(O)CC4)nc(C)n3)s2)c(Cl)c1 [Compound II, N-(2-chloro-4-deuterio-6-methyl-phenyl)-2-[[6-(4-hydroxy-1-piperidyl)-2-methyl-pyrimidin-4-yl]amino]thiazole-5-carboxamide]

ratio of lung tissue concentration to plasma concentration, compared to dasatinib [26]: significantly lower ratios
SMILES: Cc1nc(Nc2ncc(C(=O)Nc3c(C)cccc3Cl)s2)cc(N2CC[C@@H](O)C2)n1 [Compound XI, N-(2-chloro-6-methylphenyl)-2-[[2-methyl-6-((R)-3-hydroxypyrrolidin-1-yl)pyrimidin-4-yl]amino]thiazole-5-carboxamide]

ratio of lung tissue concentration to plasma concentration, compared to dasatinib [26]: significantly lower ratios
SMILES: Cc1nc(Nc2ncc(C(=O)Nc3c(C)cccc3Cl)s2)cc(N2CC[C@H](O)C2)n1 [Compound X, N-(2-chloro-6-methylphenyl)-2-[[2-methyl-6-((S)-3-hydroxypyrrolidin-1-yl)pyrimidin-4-yl]amino]thiazole-5-carboxamide]
